Common to all, as to assay type: in vivo
One test has as its system Bemisia tabaci. In words: Bemisia tabaci leaf dip test (brinjal leaves, whitefly adults). Particulars: foliar, dead and moribund whitefly adults 72 h after release, compared to untreated controls, read-out: percent mortality. The method in brief:
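Brinjal leaves were dipped 10 s in compound diluted in 0.01% Triton-X, dried, and placed on agar, then exposed to freshly emerged whitefly adults at 25° C, 70% RH. Dead plus moribund adults were counted at 72 h, and percent mortality was calculated relative to untreated controls.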

The test system of the next test is Nilaparvata lugens. In words: Nilaparvata lugens seedling dip test (paddy seedlings, third instar nymphs). Particulars: dead and moribund third instar nymphs 72 h after release, compared to untreated controls, read-out: percent mortality. The procedure, abridged: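 Paddy seedlings dipped 10 s in compound diluted with 0.01% Triton-X, shade dried, then infested with 15 third-instar nymphs at 25 °C, 75% RH. Mortality (dead plus moribund) scored at 72 h relative to untreated controls.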

The next test concerns Myzus persicae. In words: Myzus persicae leaf dip test (capsicum leaves, third instar nymphs). Particulars: foliar, dead and moribund third instar nymphs 72 h after release, compared to untreated controls, read-out: percent mortality. Here is the method: The leaf dip method was used for testing, wherein the required quantity of the compound was weighed and dissolved in a tube containing a solvent solution. The tube was put on a vortex at 2000 rpm for proper mixing and then diluted with a 0.01% Triton-X solution to the desired test concentration. Capsicum leaves were dipped in the compound solution for 10 seconds, shade dried for 20 min and then placed, with the abaxial side of the leaf up, in single cells of a bio-assay tray containing 4 ml of a solidified 1% agar-agar solution. Known numbers of third instar nymphs of Myzus persicae, collected in petri plates, were released into the cell with the treated leaf and the cell was covered with a perforated lid for better aeration. The trays were kept in a plant growth chamber at a temperature of 25° C. and a relative humidity of 70%. Observations on dead, moribund and alive nymphs were recorded 72 h after the release. Percent mortality was calculated by combining dead and moribund nymphs and comparing the result with the one of the untreated controls. The compounds

On to `CCS(=O)(=Nc1cccc2nn(-c3cccnc3)cc12)C(C)C` (stereo not shown) [Compound 71], for which the mortality at 300 ppm with Bemisia tabaci, in the test on Nilaparvata lugens and in the test on Myzus persicae was at least 70% throughout.

As to `CC(C)S(=O)(=Nc1ccc2nn(-c3cccnc3)cc2c1)C(C)C` [Compound 28], the mortality at 300 ppm in the test with Bemisia tabaci, with Nilaparvata lugens and in the test on Myzus persicae was at least 70% in each case.

In the case of `CCS(=O)(=Nc1cnc2nn(-c3cccnc3)cc2c1)C(C)C` (stereo not shown) [Compound 148], the mortality at 300 ppm with Nilaparvata lugens and in the test with Myzus persicae was at least 70% each time.

`O=S(CCC(F)(F)F)(=Nc1ccc2nn(-c3cncnc3)cc2c1)c1ccc(F)cc1` (stereo not shown) [Compound 64]: the mortality at 300 ppm with Nilaparvata lugens and with Myzus persicae was at least 70% each time.

With `CCN=S(=O)(CC1CC1)c1ccc2nn(-c3cccnc3)cc2c1` (stereo not shown) [Compound 388], the mortality at 300 ppm with Nilaparvata lugens and in the test with Myzus persicae was at least 70% throughout.

Take `CCCS(=O)(CC)=Nc1ccc2nn(-c3cccnc3)cc2c1` (stereo not shown) [Compound 137]: the mortality at 300 ppm with Nilaparvata lugens and with Myzus persicae was at least 70% each time.

On to `CCS(C)(=O)=Nc1ccc2nn(-c3cccnc3)cc2c1` (stereo not shown) [Compound 2], for which the mortality at 300 ppm with Nilaparvata lugens and with Myzus persicae was at least 70% throughout.

With `CS(C)(=O)=NC(=O)c1cccc2nn(-c3cccnc3)cc12` [Compound 92, N-(dimethyl(oxo)-λ^6-sulfaneylidene)-2-(pyridin-3-yl)-2H-indazole-4-carboxamide], the mortality at 300 ppm in the test on Nilaparvata lugens and with Myzus persicae was at least 70% each time.

`CCS(=O)(=Nc1ccc2nn(-c3cncc(F)c3)cc2c1)C(C)C` (stereo not shown) [Compound 41]: the mortality at 300 ppm in the test on Nilaparvata lugens and with Myzus persicae was at least 70% throughout.

For the compound `COc1nn(-c2ccc3nn(-c4cncnc4)cc3c2)c(=O)n1C` [Compound 119, 5-methoxy-4-methyl-2-(2-(pyrimidin-5-yl)-2H-indazol-5-yl)-2,4-dihydro-3H-1,2,4-triazol-3-one], the mortality at 300 ppm in the test with Bemisia tabaci and in the test with Myzus persicae was at least 70% in each case.

With `CCS(C)(=O)=Nc1cnc2nn(-c3cccnc3)cc2c1` (stereo not shown) [Compound 147], the mortality at 300 ppm in the test with Nilaparvata lugens and in the test with Myzus persicae was at least 70% throughout.

For `COc1nn(-c2ccc3nn(-c4cncc(F)c4)cc3c2)c(=O)n1C` [Compound 112, 2-(2-(5-fluoropyridin-3-yl)-2H-indazol-5-yl)-5-methoxy-4-methyl-2,4-dihydro-3H-1,2,4-triazol-3-one], the mortality at 300 ppm with Nilaparvata lugens and in the test with Myzus persicae was at least 70% throughout.

Regarding `CCC(C)S(=O)(=Nc1ccc2nn(-c3cccnc3)cc2c1)C(C)C` (stereo not shown) [Compound 291], the mortality at 300 ppm in the test with Bemisia tabaci and with Myzus persicae was at least 70% each time.

`COc1nn(-c2ccc3nn(-c4cccnc4)cc3c2)c(=O)n1C` [Compound 110, 5-methoxy-4-methyl-2-(2-(pyridin-3-yl)-2H-indazol-5-yl)-2,4-dihydro-3H-1,2,4-triazol-3-one]: the mortality at 300 ppm with Bemisia tabaci and in the test on Myzus persicae was at least 70% in each case.

Regarding `CS(C)(=O)=Nc1cnc2nn(-c3cccnc3)cc2c1` [Compound 146], the mortality at 300 ppm in the test on Nilaparvata lugens and with Myzus persicae was at least 70% each time.

Consider `CCC(C)S(=O)(=Nc1ccc2nn(-c3cccnc3)cc2n1)C(C)C` (stereo not shown) [Compound 287], for which the mortality at 300 ppm in the test with Bemisia tabaci and in the test with Myzus persicae was at least 70% in each case.

In the case of `CCS(=O)(CC)=Nc1ccc2nn(-c3cccnc3)cc2c1` [Compound 3], the mortality at 300 ppm in the test on Nilaparvata lugens and in the test on Myzus persicae was at least 70% each time.

For `CCCS(C)(=O)=Nc1ccc2nn(-c3cccnc3)cc2n1` (stereo not shown) [Compound 239], the mortality at 300 ppm in the test on Bemisia tabaci and with Myzus persicae was at least 70% each time.

`N=S(=O)(CCCF)c1ccc2nn(-c3cncc(F)c3)cc2c1` (stereo not shown) [Compound 482, (3-fluoropropyl)(2-(5-fluoropyridin-3-yl)-2H-indazol-5-yl)(imino)-λ^6-sulfanone]: the mortality at 300 ppm in the test with Bemisia tabaci and with Myzus persicae was at least 70% each time.
